Data: patent US20200163896A1, “FLOATABLE PHARMACEUTICAL MICROCAPSULE COMPOSITION” (Nanyang Technological University, priority 2017, published 2020)
Like-named read-outs stand apart in the source and are kept apart here.

Tests used:
[1] = In vitro drug release in SGF for 48 h; assay type: physicochemical; settings: 37° C., casein 0-5% (w/v)
Procedure: In vitro release study was conducted in SGF for 48 h. In some experiments, the study was conducted in SGF, followed by SIF, where the total duration in SGF and SIF is 48 h. Each microcapsule sample (20 mg) was added to a bottle containing SGF or SIF medium (20 mL). Both SGF and SIF bottles were placed in a 37° C. rotating incubator. At different time points, half of the medium (10 mL) in each bottle was extracted and replaced with 10 mL new medium. The time points included intervals of hours within a 48-hour period. The drug content in the extracted medium was analyzed using RP-HPLC with the procedure mentioned in Example 1 for determining encapsulation efficiency.

[2] = cited from earlier work
[3] = Plasma pharmacokinetics after oral gavage in mice; assay type: in vivo; settings: for MRT: mouse, plasma, oral, Table 3
Procedure: The experimental mice were divided into two groups (control and F2) each comprising of five animals. Control formulation (as a solution) was prepared fresh each experimental day in 0.6% methyl cellulose diluted with saline solution. Mice were subsequently administered with 200 ul (control) or 300 μl (pellet) single dose of drug solution at LD:CD:ENT=10:2.5:20 mg·kg^−1 (Group 1, conventional formulation) and LD:CD:ENT=10:2.5:20 mg·kg^−1 (Group 2, F2 via oral gavage using a feeding syringe. At stipulated time points of 0.25, 0.5, 1, 2, 4, 8, 12, 24 hr, the mice were euthanized and blood was collected via cardiac puncture with ethylenediaminetetraacetic acid (EDTA) as the anticoagulant. The blood samples were then centrifuged (4,500 rpm) for 10 min at 25° C. to obtain the plasma. In addition, the brain was harvested and flash freeze in liquid nitrogen. Samples were stored in −80° C. before further analysis via LC/MS. Analysis of drugs in plasma and brain was conducted using LC/MS (Ribeiro et al., (2015). Bioanalysis, 7, 207-220). An Agilent 1290 HPLC system with an Agilent 6120 Quadrupole Mass Spectrometer was used to measure plasma and brain concentrations of drugs. The mobile phase consisted of a gradient of (A) 0.1% (v/v) formic acid (FA) and a mixture of ACN:MeOH (90:10, v/v) containing 0.1% (v/v) FA.
XBridge C8 column (150×4.6 mm; particle size 5 μm) was used at 30° C. The injection volume of samples was 20 μl. Plasma and brain extracted solution were mixed with internal standard and extracted by solid-phase extraction. The calibration curves were linear over the range of 2 to 2000 ng/mL for LD, 2 to 400 ng/mL for CD and 5 to 3000 ng/mL for ENT.

[4] = casein-microcapsule versus control

| SMILES | Release rate of drug from microcapsules versus casein concentration [1] | Log P [2] | further results |
| --- | --- | --- | --- |
| C[C@@](Cc1ccc(O)c(O)c1)(NN)C(=O)O [CD, carbidopa] | independent of casein concentration |  |  |
| CC[C@@H](CO)NCCN[C@@H](CC)CO [ETH, ethambutol] | independent of casein concentration | −0.14 |  |
| NNC(=O)c1ccncc1 [ISO, isoniazid] | independent of casein concentration | −0.7 |  |
| N[C@@H](Cc1ccc(O)c(O)c1)C(=O)O [LD, levodopa] | independent of casein concentration |  | increase of MRT of levodopa [3, 4]: ~4 ×; increase of bioavailability (AUC) of levodopa [3, 4]: 2.8 ×; MRT ([3]; given as casein-microcapsule, read-out: mean residence time (MRT) of levodopa, casein-microcapsule): 10.1 h; MRT ([3]; given as control formulation, read-out: mean residence time (MRT) of levodopa, control): 2.6 h |
| CN(C)C(=N)N=C(N)N [MET, metformin] | independent of casein concentration |  |  |
| CO[C@H]1/C=C/O[C@@]2(C)Oc3c(C)c(O)c4c(O)c(c(/C=N/N5CCN(C)CC5)c(O)c4c3C2=O)NC(=O)/C(C)=C\C=C\[C@H](C)[C@H](O)[C@@H](C)[C@@H](O)[C@@H](C)[C@H](OC(C)=O)[C@@H]1C [RIF, rifampicin] |  | 4.24 |  |
